The subject of assay [1] is TAR RNA. As to the kind of experiment: L-arginine-Amberlite affinity column elution of TAR RNA. It counts as binding, HIV-1. The conditions noted are these: concentration that elutes 50% of TAR RNA from L-arginine-Amberlite affinity column. The protocol: (§1) The model Tat peptide (R52: […]) was prepared by the Weizmann Institute Chemical Services and was purified by reverse phase HPLC (C-18) (Lapidot et al., 1995). […] The RNA was transcriptionally labeled with α-^32P UTP, purified on a 12% polyacrylamide/7M urea gel (19:1 acrylamide:bis-acrylamide) and was eluted from the gel by 0.5M ammonium acetate, 10 mM magnesium acetate, 1 mM EDTA and 0.1% SDS. The sample was subjected to phenol extraction and the RNA was precipitated from 70% ethanol. Purified RNA was dissolved in diethyl pyrocarbonate-treated water (DEPC water), its concentration was determined by UV absorption at 260 nm and the specific radioactivity was determined by scintillation counting on a LS 1701 “Bruker” counter.
The L-arginine-Amberlite resin was prepared as follows: Carboxyl groups of Amberlite IRC-50 resin were covalently modified with ethanolamine using 1-(3-dimethylaminopropyl) 3-ethylcarbodiimide, a water-soluble coupler. The hydroxy ethyleneamide resin obtained was washed and dried, and L-arginine (12-16 μmols per ml of resin) was coupled to the hydroxy groups of the resin via an isourea moiety using a standard cyanogen bromide protocol. The final concentration of arginine residues was 12-16 μmol per ml of resin. The swollen L-arginino-Amberlite resin (200 μl) was packed into a plastic mini-column and equilibrated with buffer containing 40 mM Tris HCl, pH 7.5, 250 mM NaCl, 0.5 mM EDTA and 5 mM MgCl2 (buffer A). Approximately 1 ng of ^32P-UTP labeled TAR RNA in buffer A was loaded on the column. The column was eluted 3 to 5 times with 400 μl portions of buffer A, until no radioactivity was detected in the eluent. […] Each of the test compounds was dissolved in buffer A and passed through the column in 300 μl portions. Radioactivity of the eluates was determined by scintillation counting on a LS 1701 “Bruker” counter. CE50 values, the concentrations of inhibitors eluting 50% of the radioactive material from the column, were determined.

In assay [2] the test system is TAR RNA. As to the kind of experiment: Gel-shift binding to TAR RNA. The following applies: 50% binding; TAR RNA 2 nM. On the set-up: species or system HIV-1.
Assay [3] deals with TAR RNA. As to the kind of experiment: RNase A footprinting of TAR RNA. It counts as binding, HIV-1. The following applies: 1 μM TAR, 200 pM RNase A. The protocol: In a typical experiment 10 μl of 5 mM cacodylate buffer pH 6.5, containing 25 mM KCl and 50-100 ng 5′ ^32P-labeled TAR RNA (approximately 0.5-1 μM) were incubated with 200 pM RNase A (Sigma) at room temperature for 10 minutes in the presence of Tat R52 and the conjugates of the invention at various concentrations. In the competition experiments, the mixture was supplemented with 0.5 μg yeast tRNA (Sigma). After the incubation, 10 μl of formamide/bromphenol blue loading buffer was added to the samples. The samples were heated to 80° C. for 2 min and were resolved by electrophoresis on 40 cm×0.8 mm 20% polyacrylamide denaturing gel (7M urea) for 3 hours at 55° C. The results were visualized by a phosphoimager as described above and quantitated using ImageQuant software.
TAR RNA and RNase A concentrations were established by co-titration. To produce a “single-hit” kinetics conditions, 1 μM TAR versus 200 pM RNase A were selected. Tat R52 and AAC concentrations were determined by titration. […] RNase A cleaved TAR RNA in an uneven manner (FIG. 4A., lane 2). The most susceptible regions for cleavage were the single-stranded loop, nucleotides U31-G34 as well as C24 and U25 of the bulge. Strong cleavage was also observed at G21-G41 and A20-U42 pairs (lower stem). Binding of R52 (2-4 μM) caused a weakening of the bands in the upper stem region, (G26-C39, A27-C38, as well as U40) (FIG. 4A., lanes 3, 4). At 4 μM R52, the cleavage at G34 (loop) was enhanced, as well as a certain enhancement of bands A20, G21, U23 and U25 was observed. Remarkably, the band corresponding to the R52-TAR complex still was observed on the gels even after electrophoresis under strongly denaturing conditions. In the presence of R4K (10-20 μM), the upper stem (G26-C29), the lower stem and the bulge (G21-U23, partially C24 and U25) were protected as well as C38, C39 and U40. Cleavage at C19 and A20 of the lower stem and C30, G33 and G34 of the loop was enhanced by 10 μM R4K, whereas with 20 μM R4K the protection of C30, G34 and A20-G21 was observed (FIG. 4A., lanes 5, 6). […] Cleavages at C19-A20 in the lower stem as well as at G30 and G34 in the loop were observed (FIG. 4A., lanes 7, 8). In the presence of GB4K (20 μM) no significant protection was observed.

Assay [4] relates to TAR RNA. As to the kind of experiment: Gel-shift binding to TAR RNA. Further details: species or system HIV-1. The conditions noted are these: for CD50: 50% binding; for effect of ten-fold excess of yeast tRNA on complex formation with TAR: ten-fold excess of tRNA (100 ng per lane). How it is done:
as §1
To study the affinity of the test compounds to TAR, gel-shift and gel-shift inhibition experiments were performed. The binding reaction mixtures (20 μl) contained ^32P-labeled TAR (18-44) RNA oligonucleotide (3-6 nM) and Tat R52 peptide (35-75 nM) in a binding buffer (10 mM Tris-HCl pH 7.5, 70 mM NaCl, 0.2 mM EDTA and 5% glycerol). The reaction mixtures were incubated for 10 minutes on ice and resolved by electrophoresis on a 10% non-denaturing polyacrylamide gel (40:1 acrylamide:bis-acrylamide) at 200V, for 3 h at 4° C. Gels were dried and visualized by autoradiography. Quantitations were obtained by optical densitometry of films. Alternatively, results were visualized by exposing the wet gels to Fuji phosphoimager plates, which were read on a “Storm 820” (Molecular Dynamics) phosphoimager. […]
Binding of aminoglycoside-arginine conjugates (AAC) to TAR RNA was measured by adding varying concentrations of each conjugate to reaction mixtures (20 μl) which contained 12 nM ^32P-labeled TAR RNA. The reactions were analyzed as described above.

Sequence “YKKKRKKKKKA [Tat R52 peptide, Tat-derived model undeca peptide, containing a single arginine moiety at position 52 of native Tat protein, in the strand of lysines, reference compound]” returned a CE50 in assay [1] of 0.5 mM. The CD50 was 6 to 12 nM in assay [2], 35 nM in assay [4] (TAR RNA 6 nM), 75 nM in assay [4] (TAR RNA 12 nM) and 200 nM in assay [4] (TAR RNA 20 nM). Besides, the “concentration giving effective protection of TAR” value in assay [3] amounted to 2 µM. For the same sequence, the “effect of ten-fold excess of yeast tRNA on complex formation with TAR” value is reported as “do not inhibit the binding” in assay [4] and “did not inhibit complex formation” in assay [4] (listed as R52).

These data come from patent US6642365B1, “Anti-(retro)viral conjugates of saccharides and acetamidino or guanidino compounds” (Yeda Research and Development Co. Ltd., priority 2001, dated 2003).
